Experiments:
glucocorticoid receptor [1] = target: T1, glucocorticoid receptor (Rattus norvegicus, UniProt P06536); experiment: competition with [3H]-triamcinolone acetonide, sucrose gradient centrifugation (weak; no effect at […]); conditions: read-out: % [3H]-triamcinolone acetonide bound at 5 umol/l
T1 construct: gene Nr3c1; native receptor in R3230AC tumour cytosol (8-9 S component)
T1 sequence (P06536 1-795): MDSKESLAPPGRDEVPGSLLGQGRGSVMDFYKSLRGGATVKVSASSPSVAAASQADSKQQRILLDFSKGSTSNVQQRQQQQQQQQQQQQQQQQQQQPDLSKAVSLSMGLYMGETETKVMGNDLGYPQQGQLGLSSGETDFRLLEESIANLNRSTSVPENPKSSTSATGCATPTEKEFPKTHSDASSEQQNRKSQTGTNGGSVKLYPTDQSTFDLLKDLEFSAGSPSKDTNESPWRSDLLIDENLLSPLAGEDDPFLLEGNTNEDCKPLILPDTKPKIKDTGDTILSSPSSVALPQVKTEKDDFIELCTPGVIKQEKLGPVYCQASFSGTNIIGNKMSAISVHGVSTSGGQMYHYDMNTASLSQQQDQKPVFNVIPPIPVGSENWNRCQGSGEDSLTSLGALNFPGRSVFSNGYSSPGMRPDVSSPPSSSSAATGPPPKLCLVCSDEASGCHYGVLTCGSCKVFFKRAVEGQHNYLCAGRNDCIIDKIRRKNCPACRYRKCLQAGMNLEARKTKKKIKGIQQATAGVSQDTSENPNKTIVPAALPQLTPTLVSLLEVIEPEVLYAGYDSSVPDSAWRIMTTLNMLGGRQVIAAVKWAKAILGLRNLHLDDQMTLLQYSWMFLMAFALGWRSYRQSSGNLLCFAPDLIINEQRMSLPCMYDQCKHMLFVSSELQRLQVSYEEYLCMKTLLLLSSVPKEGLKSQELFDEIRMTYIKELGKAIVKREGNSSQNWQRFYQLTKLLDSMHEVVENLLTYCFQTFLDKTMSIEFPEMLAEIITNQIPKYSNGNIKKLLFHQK

glucocorticoid receptor [2] = target: T1, glucocorticoid receptor; experiment: competition with [3H]-triamcinolone acetonide, sucrose gradient centrifugation; conditions: read-out: % [3H]-triamcinolone acetonide bound at 1 umol/l
glucocorticoid receptor [3] = target: T1, glucocorticoid receptor; experiment: as above; conditions: read-out: % [3H]-triamcinolone acetonide bound at 5 umol/l

Structure (SMILES): C[C@]12CC[C@@H]3c4ccc(O)cc4CC[C@H]3[C@@H]1CC[C@@H]2O [Oestradiol-17β]
- activity at 5 µM (glucocorticoid receptor [1]): 45%

Structure (SMILES): C[C@]12C=CC(=O)C=C1CC[C@H]1[C@@H]3C[C@@H](O)[C@](O)(C(=O)CO)[C@@]3(C)C[C@H](O)[C@@]12F [Triamcinolone]
- activity at 1 µM (glucocorticoid receptor [2]): 14%

Structure (SMILES): C[C@]12CCC(=O)C=C1CC[C@@H]1[C@@H]2CC[C@@]2(C)[C@H]1CC[C@]2(O)C(=O)CO [cortexolone]
- activity at 5 µM (glucocorticoid receptor [3]): 25%

Reference: article PMC2008813 (British Journal of Cancer, 1973)
